Assay results from ChEMBL document CHEMBL1140165, “Rotationally constrained 2,4-diamino-5,6-disubstituted pyrimidines: a new class of histamine H4 receptor antagonists with improved druglikeness and in vivo efficacy in pain and inflammation models” (J Med Chem, 2008).
Activity calls are given as the source filed them. The calls are words filed in the database; no cut-off is given here.

Tests used:
[1] = Protein binding in rat; format: ADME, organism-based; conditions: in vivo, read-out: PB (converted)
[2] = biological target: Histamine H4 receptor (Mus musculus) (UniProt Q91ZY2); experiment: Antagonist activity at mouse histamine H4 receptor expressed in HEK293 cells assessed as inhibition of histamine-induced intracellular calcium elevation by FLIPR assay relative to histamine; format: functional, cell-based
Liver microsomes [3] = experiment: Metabolic stability in human liver microsomes; format: ADME, Microsome
Histamine H4 receptor [4] = biological target: T1, Histamine H4 receptor (Homo sapiens, UniProt Q9H3N8); conditions: HEK293
T1 sequence (Q9H3N8 whole entry): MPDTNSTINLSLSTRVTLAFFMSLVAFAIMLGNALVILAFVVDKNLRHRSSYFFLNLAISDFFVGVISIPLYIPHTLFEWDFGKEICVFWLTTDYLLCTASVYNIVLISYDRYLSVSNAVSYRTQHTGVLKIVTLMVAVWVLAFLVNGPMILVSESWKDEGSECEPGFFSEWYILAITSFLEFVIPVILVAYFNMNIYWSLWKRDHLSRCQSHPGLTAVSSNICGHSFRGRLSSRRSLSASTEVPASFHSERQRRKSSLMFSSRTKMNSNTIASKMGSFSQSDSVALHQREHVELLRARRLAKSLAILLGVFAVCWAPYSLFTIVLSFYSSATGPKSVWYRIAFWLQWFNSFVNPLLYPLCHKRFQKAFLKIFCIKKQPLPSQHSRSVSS

Cytochrome P450 2C9 = Cytochrome P450 2C9 (Homo sapiens, UniProt P11712); experiment: Inhibition of CYP2C9 upto 10 uM; format: ADME
Cytochrome P450 2C9, sequence (P11712 whole entry): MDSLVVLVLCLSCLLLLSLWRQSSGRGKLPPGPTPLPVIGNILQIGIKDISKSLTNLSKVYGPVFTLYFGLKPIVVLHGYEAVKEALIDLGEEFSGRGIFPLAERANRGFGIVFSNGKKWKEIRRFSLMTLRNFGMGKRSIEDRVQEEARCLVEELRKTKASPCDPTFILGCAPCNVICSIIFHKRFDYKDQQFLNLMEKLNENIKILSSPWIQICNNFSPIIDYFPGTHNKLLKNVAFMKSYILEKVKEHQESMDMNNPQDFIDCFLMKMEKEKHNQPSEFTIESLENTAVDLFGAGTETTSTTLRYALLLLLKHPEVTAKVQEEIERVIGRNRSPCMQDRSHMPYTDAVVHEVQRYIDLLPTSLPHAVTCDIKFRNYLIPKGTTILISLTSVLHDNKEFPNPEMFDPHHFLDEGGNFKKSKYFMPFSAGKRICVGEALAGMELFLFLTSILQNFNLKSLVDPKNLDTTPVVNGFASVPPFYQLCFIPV

Cytochrome P450 2D6 = Cytochrome P450 2D6 (Homo sapiens, UniProt P10635); experiment: Inhibition of CYP2D6 upto 10 uM; format: ADME
Cytochrome P450 2D6, sequence (P10635 whole entry): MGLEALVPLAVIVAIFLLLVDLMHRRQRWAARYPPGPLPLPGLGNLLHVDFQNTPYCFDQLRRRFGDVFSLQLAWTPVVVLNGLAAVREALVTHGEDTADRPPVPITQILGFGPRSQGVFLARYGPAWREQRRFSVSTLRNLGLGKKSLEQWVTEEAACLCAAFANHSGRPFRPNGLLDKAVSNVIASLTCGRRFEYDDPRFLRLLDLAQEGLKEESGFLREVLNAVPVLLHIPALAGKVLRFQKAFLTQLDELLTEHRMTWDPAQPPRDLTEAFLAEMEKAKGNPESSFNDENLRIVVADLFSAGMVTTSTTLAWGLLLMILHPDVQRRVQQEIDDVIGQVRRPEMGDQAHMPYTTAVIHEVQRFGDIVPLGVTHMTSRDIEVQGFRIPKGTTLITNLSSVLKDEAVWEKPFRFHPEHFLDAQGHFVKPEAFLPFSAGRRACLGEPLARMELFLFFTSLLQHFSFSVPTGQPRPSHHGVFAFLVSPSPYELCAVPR

Liver microsomes [5] = experiment: Metabolic stability in rat liver microsomes; format: ADME, Microsome
[6] = Metabolic stability in mouse liver microsomes; format: ADME, Microsome
Cytochrome P450 3A4 = Cytochrome P450 3A4 (Homo sapiens, UniProt P08684); experiment: Inhibition of CYP3A4 upto 10 uM; format: ADME
Cytochrome P450 3A4, sequence (P08684 whole entry): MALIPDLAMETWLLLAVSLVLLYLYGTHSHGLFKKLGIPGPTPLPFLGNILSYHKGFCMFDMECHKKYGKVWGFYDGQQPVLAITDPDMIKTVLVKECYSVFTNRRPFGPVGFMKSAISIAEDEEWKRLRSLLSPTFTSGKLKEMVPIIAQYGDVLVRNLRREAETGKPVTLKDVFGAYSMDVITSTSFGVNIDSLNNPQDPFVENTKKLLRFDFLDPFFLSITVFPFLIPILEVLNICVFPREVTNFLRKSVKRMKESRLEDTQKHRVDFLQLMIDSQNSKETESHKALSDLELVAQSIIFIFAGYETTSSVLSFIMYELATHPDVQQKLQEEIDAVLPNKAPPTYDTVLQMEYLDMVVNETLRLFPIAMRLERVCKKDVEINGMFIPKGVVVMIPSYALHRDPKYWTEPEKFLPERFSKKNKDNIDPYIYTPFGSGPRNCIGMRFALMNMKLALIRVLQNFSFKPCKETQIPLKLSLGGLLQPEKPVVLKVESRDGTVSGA

[7] = Protein binding in human; format: ADME, organism-based; conditions: in vivo, read-out: PB (converted)
[8] = Selectivity ratio of Ki for human histamine H4 receptor to Ki for 5HT2A receptor
[9] = Selectivity ratio of Ki for human histamine H4 receptor to Ki for histamine H2 receptor
Mus musculus [10] = experiment: Inhibition of clobenpropit-induced itching in ip dosed CD1/ICR mouse assessed as blockade of scratching in hind paw for 25 mins pretreated 30 mins before clobenpropit challenge; format: functional
[11] = Half life in rat at 10 mg/kg, iv; format: ADME, organism-based; set-up: dose 10 mg/kg, route intravenous; conditions: in vivo
[12] = Terminal volume of distribution in rat at 10 mg/kg, iv; format: ADME, organism-based; set-up: dose 10 mg/kg, route intravenous; conditions: in vivo, read-out: Vbeta
[13] = Selectivity ratio of Ki for human histamine H4 receptor to Ki for histamine H1 receptor
[14] = Ratio of drug level in brain to plasma in rat at 10 mg/kg, iv after 30 mins; format: ADME, organism-based; set-up: dose 10 mg/kg, route intravenous
[15] = Selectivity ratio of Ki for human histamine H4 receptor to Ki for 5HT1D receptor
[16] = Fractional bioavailability in rat at 10 mg/kg, iv and 10 mg/kg, po; format: ADME, organism-based; conditions: in vivo
BMMC = experiment: Blockade of histamine-induced morphological changes in BALB/c mouse BMMC by flow cytometry; format: functional, cell-based
[17] = Selectivity ratio of Ki for human histamine H4 receptor to Ki for adrenergic alpha1 receptor
Mus musculus [18] = experiment: Antiinflammatory activity against ip dosed BALB/c mouse assessed as inhibition of zymosan-induced peritonitis after 2 hrs pretreated 30 mins before zymosan challenge; format: functional
Rattus norvegicus = experiment: Antinociceptive efficacy in ip dosed spinal nerve ligated Sprague-Dawley rat assessed as reduction of neuropathic pain in paw; format: functional
[19] = Selectivity ratio of Ki for human histamine H4 receptor to Ki for dopamine D2 receptor
[20] = biological target: Histamine H4 receptor (Rattus norvegicus) (UniProt Q91ZY1); experiment: Antagonist activity at rat histamine H4 receptor expressed in HEK293 cells assessed as inhibition of histamine-induced intracellular calcium elevation by FLIPR assay relative to histamine; format: functional, cell-based
Histamine H4 receptor (Rattus norvegicus), sequence (Q91ZY1 whole entry): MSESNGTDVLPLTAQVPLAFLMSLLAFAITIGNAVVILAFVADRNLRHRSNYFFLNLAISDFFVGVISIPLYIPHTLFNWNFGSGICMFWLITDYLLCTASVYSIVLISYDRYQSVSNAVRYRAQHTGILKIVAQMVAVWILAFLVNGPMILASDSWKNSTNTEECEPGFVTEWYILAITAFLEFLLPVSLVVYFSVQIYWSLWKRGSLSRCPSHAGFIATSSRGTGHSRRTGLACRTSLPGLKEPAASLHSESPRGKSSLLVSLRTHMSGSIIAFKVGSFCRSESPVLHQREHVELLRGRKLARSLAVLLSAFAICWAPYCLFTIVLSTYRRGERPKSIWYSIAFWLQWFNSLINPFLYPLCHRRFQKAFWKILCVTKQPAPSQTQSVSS

[21] = Half life in mouse at 2.5 mg/kg, iv; format: ADME, organism-based; set-up: dose 2.5 mg/kg, route intravenous; conditions: in vivo
[22] = Blood clearance in rat at 10 mg/kg, iv; format: ADME, organism-based; set-up: dose 10 mg/kg, route intravenous; conditions: whole blood
Homo sapiens = species: Homo sapiens; experiment: Selectivity ratio of Ki for human histamine H4 receptor to Ki for human histamine H3 receptor
[23] = Selectivity ratio of Ki for human histamine H4 receptor to Ki for 5HT1A receptor
Histamine H4 receptor [24] = biological target: T1, Histamine H4 receptor; experiment: Displacement of [3H]histamine from human histamine H4 receptor expressed in HEK293 cells; format: cell-based
Histamine H4 receptor [25] = biological target: T2, Histamine H4 receptor (Rattus norvegicus, UniProt Q91ZY1); experiment: Antagonist activity at rat histamine H4 receptor expressed in HEK293 cells assessed as inhibition of histamine-induced intracellular calcium elevation by FLIPR assay; format: functional, cell-based
T2 sequence (Q91ZY1 whole entry): as above

[26] = Terminal volume of distribution in mouse at 5 mg/kg, iv; format: ADME, organism-based; set-up: dose 5 mg/kg, route intravenous; conditions: in vivo, read-out: Vbeta
Histamine H4 receptor [27] = biological target: T3, Histamine H4 receptor (Mus musculus, UniProt Q91ZY2); experiment: Antagonist activity at mouse histamine H4 receptor expressed in HEK293 cells assessed as inhibition of histamine-induced intracellular calcium elevation by FLIPR assay; format: functional, cell-based
T3 sequence (Q91ZY2 whole entry): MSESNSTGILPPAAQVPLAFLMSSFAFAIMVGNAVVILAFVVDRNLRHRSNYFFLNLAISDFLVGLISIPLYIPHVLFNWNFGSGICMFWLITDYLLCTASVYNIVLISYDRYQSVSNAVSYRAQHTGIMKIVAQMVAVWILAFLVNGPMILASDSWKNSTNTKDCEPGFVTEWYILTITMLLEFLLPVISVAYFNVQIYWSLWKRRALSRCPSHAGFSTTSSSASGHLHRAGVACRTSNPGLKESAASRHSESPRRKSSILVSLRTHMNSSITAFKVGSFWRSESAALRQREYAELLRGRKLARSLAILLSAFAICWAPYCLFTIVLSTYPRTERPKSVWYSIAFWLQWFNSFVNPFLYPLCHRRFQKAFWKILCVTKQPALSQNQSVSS

[28] = Blood clearance in mouse at 5 mg/kg, iv; format: ADME, organism-based; set-up: dose 5 mg/kg, route intravenous; conditions: whole blood
[29] = Half life in mouse at 5 mg/kg, iv; format: ADME, organism-based; set-up: dose 5 mg/kg, route intravenous; conditions: in vivo
[30] = Fractional bioavailability in rat at 5 mg/kg, iv and 5 mg/kg, po; format: ADME, organism-based; conditions: in vivo
Histamine H4 receptor [31] = biological target: T2, Histamine H4 receptor; experiment: Displacement of [3H]histamine from rat histamine H4 receptor expressed in HEK293 cells; format: cell-based
[32] = Half life in mouse at 20 mg/kg, sc; format: ADME, organism-based; set-up: dose 20 mg/kg, route subcutaneous; conditions: in vivo
[33] = Tmax in mouse at 20 mg/kg, sc; format: ADME, organism-based; set-up: dose 20 mg/kg, route subcutaneous; conditions: in vivo
[34] = AUC (0 to t) in mouse at 20 mg/kg, sc; format: ADME, organism-based; set-up: dose 20 mg/kg, route subcutaneous; conditions: plasma
[35] = AUC (0 to t) in mouse at 5 mg/kg, iv; format: ADME, organism-based; set-up: dose 5 mg/kg, route intravenous; conditions: plasma
[36] = AUC (0 to infinity) in mouse at 20 mg/kg, sc; format: ADME, organism-based; set-up: time infinity, dose 20 mg/kg, route subcutaneous; conditions: plasma
[37] = Oral bioavailability in mouse at 20 mg/kg, sc; format: ADME, organism-based; conditions: in vivo, subcutaneous
[38] = AUC (0 to infinity) in mouse at 5 mg/kg, iv; format: ADME, organism-based; set-up: time infinity, dose 5 mg/kg, route intravenous; conditions: plasma
[39] = Cmax in mouse at 20 mg/kg, sc; format: ADME, organism-based; set-up: dose 20 mg/kg, route subcutaneous; conditions: in vivo
[40] = Cmax in mouse at 5 mg/kg, iv; format: ADME, organism-based; set-up: dose 5 mg/kg, route intravenous; conditions: in vivo
Mus musculus [41] = experiment: (§1) Plasma clearance in mouse at 5 mg/kg, iv; format: ADME, organism-based; set-up: dose 5 mg/kg, route intravenous; conditions: in vivo
[42] = Tmax in mouse at 5 mg/kg, iv; format: ADME, organism-based; set-up: dose 5 mg/kg, route intravenous; conditions: in vivo
[43] = as §1; format: ADME, organism-based; set-up: dose 5 mg/kg, route intravenous; conditions: plasma

SMILES	fraction unbound [1]	Stability (Liver microsomes [3]) [pmol/min/mg]	pKb (Histamine H4 receptor [4])	Activity (Cytochrome P450 2C9)	Activity (Cytochrome P450 2D6)	Stability (Liver microsomes [5]) [pmol/min/mg]	Stability [6] [pmol/min/mg]	Activity (Cytochrome P450 3A4)	fraction unbound [7]	Ratio Ki [8]	Ratio Ki [9]	ED50 (Mus musculus [10]) [µmol/kg]	half-life [11] [min]	Vd [12] [L/kg]	Ratio Ki [13]	Kp at 0.5 h [14]	Ratio Ki [15]	bioavailability [16] [%]	Activity (BMMC)	half-life [29] [min]	further results
N#Cc1ccc(-c2cc(N3CCNCC3)nc(N)n2)cc1	0.96	6.2	8.08	Not Active	Not Active	26.9	23.2	Not Active	0.93	–	–	–	–	–	–	–	–	–	–	–	Efficacy [2]: 54%
CN1CCN(c2cc(-c3ccc(C#N)cc3)nc(N)n2)CC1	0.62	25.9	–	Not Active	Not Active	94.5	43.1	Not Active	0.65	120	> 260	25	24	7.1	> 170	20	3.5	31	Active	–	Ratio Ki [17]: 330; ED50 (Mus musculus [18]): 66 µmol/kg; ED50 (Rattus norvegicus): 115 µmol/kg; Ratio Ki [19]: > 140; Efficacy [20]: 64%; half-life [21]: 12 min; clearance [22]: 172 mL/min/kg; Ratio Ki (Homo sapiens): 30; Ratio Ki [23]: 1.2
Nc1nc2c(c(N3CCNCC3)n1)CCCc1ccccc1-2	0.42	14.5	7.13	Not Active	Not Active	95.4	14	Not Active	0.56	> 185	> 130	> 72	132	19.9	> 93	2.1	17	37	Active	294	Ki (Histamine H4 receptor [24]; read-out: Ki): 71 nM; EC50 (Histamine H4 receptor [25]): 14.8 nM; Ratio Ki [17]: 110; ED50 (Mus musculus [18]): 21 µmol/kg; Vd [26]: 88.9 L/kg; Ratio Ki [19]: > 140; clearance [22]: 102 mL/min/kg; EC50 (Histamine H4 receptor [27]): 18.2 nM; clearance [28]: 378 mL/min/kg; Ratio Ki (Homo sapiens): 52; Ratio Ki [23]: 13; bioavailability [30]: 33%; Ki (Histamine H4 receptor [31]): 7.59 nM
O=C(c1cc2cc(Cl)ccc2[nH]1)N1CCNCC1	0.35	26.6	7.74	Not Active	Not Active	61.4	31.6	Not Active	0.42	–	–	–	–	–	–	–	–	–	–	97.8	half-life [32]: 51.6 min; Tmax [33]: 120 min; AUC(0-t) [34]: 11.8 µM·h; Ki (Histamine H4 receptor [24]; read-out: pKi (converted)): 25.7 nM; AUC(0-t) [35]: 3.03 µM·h; EC50 (Histamine H4 receptor [25]): 30.9 nM; AUC(0-inf) [36]: 11.8 µM·h; bioavailability [37]: 0%; EC50 (Histamine H4 receptor [27]): 17.8 nM; AUC(0-inf) [38]: 3.04 µM·h; Cmax [39]: 2000 nM; Ki (Histamine H4 receptor [31]): 3.98 nM; Cmax [40]: 1120 nM; Activity (Mus musculus [41]): Not Active; Tmax [42]: 30 min
CN1CCN(C(=O)c2cc3cc(Cl)ccc3[nH]2)CC1 [JNJ-7777120]	0.28	19	–	Not Active	Not Active	179	143	Not Active	0.23	–	–	–	–	–	–	–	–	–	Active	22.8	half-life [32]: 58.2 min; Tmax [33]: 30 min; AUC(0-t) [34]: 2.79 µM·h; AUC(0-t) [35]: 0.9 µM·h; AUC(0-inf) [36]: 2.79 µM·h; ED50 (Rattus norvegicus): 217 µmol/kg; bioavailability [37]: 77.6%; Vd [26]: 11 L/kg; AUC(0-inf) [38]: 0.9 µM·h; bioavailability [30]: 24.1%; Cmax [39]: 500 nM; Cmax [40]: 2220 nM; clearance [43]: 334 mL/min/kg; Tmax [42]: 6 min
